Converted amounts (≈) assume the structure as drawn.
Assays:
E. coli, NIHJ = experiment: Antibacterial activity (MIC), standard method of the Japan Society of Chemotherapy; format: cell-based; conditions: Escherichia coli
Method: (§1) Antibacterial activities of the compounds of this invention were measured in accordance to the standard method designated by the Japan Society of Chemotherapy, with the results shown as MIC values (microgram/ml) units in the following table. For comparison with the MIC values of the compounds of this invention, MIC values of levofloxacin (LVFX), ciprofloxacin (CPFX) and 7-[3-(R)-(1-aminocyclopropyl)pyrrolidin-1-yl]-6-fluoro-1-[2-(S)-fluoro-1-(R)-cyclopropyl]-8-methyl-1,4-dihydro-4-oxoquinoline-3-carboxylic acid (Reference drug 1), which is described in PCT/JP96/00208, are also shown in the table.

K. pneumoniae, Type 1 = experiment: as above; format: cell-based; conditions: Klebsiella pneumoniae, TYPE1
Method: as §1

Pr. vulgalis, 08601 = experiment: as above; format: cell-based
Method: as §1

Ps. aeruginosa, 32104 = experiment: as above; format: cell-based; conditions: Pseudomonas aeruginosa
Method: as §1

Ps. aeruginosa, 32121 = experiment: as above; format: cell-based; conditions: Pseudomonas aeruginosa
Method: as §1

[1] = system: Ps. maltophilia, IID-1275; experiment: as above; format: cell-based; conditions: Stenotrophomonas maltophilia, IID1275
Method: as §1

S. aureus, 209P = experiment: as above; format: cell-based; conditions: Staphylococcus aureus
Method: as §1

S. aureus, 870307 = experiment: as above; format: cell-based; conditions: Staphylococcus aureus
Method: as §1

S. epidermidis, 56500 = experiment: as above; format: cell-based; conditions: Staphylococcus epidermidis
Method: as §1

S. flexneri, 2A 5503 = experiment: as above; format: cell-based; conditions: Shigella flexneri, 2A5503
Method: as §1

Ser. marcescens, 10100 = experiment: as above; format: cell-based; conditions: Serratia marcescens
Method: as §1

[2] = system: Str. faecalis, ATCC 19433; experiment: as above; format: cell-based; conditions: Enterococcus faecalis, ATCC19433
Method: as §1

Str. pneumoniae J24 = experiment: as above; format: cell-based; conditions: Streptococcus pneumoniae
Method: as §1

Str. pyogenes, G-36 = experiment: as above; format: cell-based; conditions: Streptococcus pyogenes, G36
Method: as §1

Row | Compound | MIC (E. coli, NIHJ) | MIC (K. pneumoniae, Type 1) | MIC (Pr. vulgalis, 08601) | MIC (Ps. aeruginosa, 32104) | MIC (Ps. aeruginosa, 32121) | MIC [1] | MIC (S. aureus, 209P) | MIC (S. aureus, 870307) | MIC (S. epidermidis, 56500) | MIC (S. flexneri, 2A 5503) | MIC (Ser. marcescens, 10100) | MIC [2] | MIC (Str. pneumoniae J24) | MIC (Str. pyogenes, G-36) | melting point
1 | CCNC1([C@@H]2CCN(c3ccc4c(=O)c(C(=O)O)cn([C@@H]5C[C@@H]5F)c4c3C)C2)CC1 [Example 14, 7-[3-(R)-[1-(ethylamino)cyclopropyl]pyrrolidin-1-yl]-1-[2-(S)-fluoro-1-(R)-cyclopropyl]-8-methyl-1,4-dihydro-4-oxoquinoline-3-carboxylic acid] | ≤ 0.003 µg/mL | 0.05 µg/mL (≈ 0.121 µM) | 0.012 µg/mL (≈ 0.029 µM) | 0.1 µg/mL (≈ 0.242 µM) | 0.05 µg/mL (≈ 0.121 µM) | 0.2 µg/mL (≈ 0.484 µM) | ≤ 0.003 µg/mL | 0.012 µg/mL (≈ 0.029 µM) | 0.006 µg/mL (≈ 0.0145 µM) | 0.006 µg/mL (≈ 0.0145 µM) | 0.1 µg/mL (≈ 0.242 µM) | 0.025 µg/mL (≈ 0.0605 µM) | ≤ 0.003 µg/mL | ≤ 0.003 µg/mL | 191 to 194 °C
2 | CNC1([C@@H]2CCN(c3ccc4c(=O)c(C(=O)O)cn(C5CC5)c4c3C)C2)CC1 [Example 15, 1-(cyclopropyl)-8-methyl-7-[3-(R)-[1-(methylamino)cyclopropyl]pyrrolidin-1-yl]-1,4-dihydro-4-oxoquinoline-3-carboxylic acid] | ≤ 0.003 µg/mL | 0.025 µg/mL (≈ 0.0655 µM) | 0.012 µg/mL (≈ 0.0315 µM) | 0.1 µg/mL (≈ 0.262 µM) | 0.05 µg/mL (≈ 0.131 µM) | 0.2 µg/mL (≈ 0.524 µM) | ≤ 0.003 µg/mL | 0.025 µg/mL (≈ 0.0655 µM) | 0.006 µg/mL (≈ 0.0157 µM) | 0.006 µg/mL (≈ 0.0157 µM) | 0.1 µg/mL (≈ 0.262 µM) | 0.025 µg/mL (≈ 0.0655 µM) | ≤ 0.003 µg/mL | ≤ 0.003 µg/mL | 190 to 192 °C
